# Assay results: PubChem BioAssay AID1053203 (The Scripps Research Institute Molecular Screening Center, 2014)
# Test: T. brucei bloodstream parasite growth inhibition, late-stage follow-up, counter-screen for T. brucei MetRS inhibitor project, absorbance, round 2, provider-run (AID 1053203)
# Conditions: T. brucei Lister 427 bloodstream growth, AlamarBlue, 48 h
Compound,IC50 (run 1),IC50 (run 2)
CCN(CC)C(=O)C(=O)c1cn(CC(=O)Nc2cccc(C(F)(F)F)c2)c2cc(OC)ccc12,> 10 µM,
CCN(CC)C(=O)C(=O)c1cn(CC(=O)Nc2cc(Cl)cc(C(F)(F)F)c2)c2ccccc12,2.64 µM,
CCN(CC)C(=O)C(=O)c1cn(CC(=O)Nc2cc(Oc3ccccc3)cc(C(F)(F)F)c2)c2ccccc12,1.15 µM,1.07 µM
CCN(CC)C(=O)C(=O)c1cn(CC(=O)Nc2cc(Br)cc(C(F)(F)F)c2)c2ccccc12,3.36 µM,
CCN(CC)C(=O)C(=O)c1cn(CC(=O)Nc2cc(C)cc(C(F)(F)F)c2)c2ccccc12,1.72 µM,2.09 µM
CCN(CC)C(=O)C(=O)c1cn(CC(=O)Nc2cc(C(F)(F)F)cc(C(F)(F)F)c2)c2ccccc12,2.6 µM,
